Results published in ChEMBL document CHEMBL2176907, “Identification of multiple 5-HT₄ partial agonist clinical candidates for the treatment of Alzheimer's disease” (J Med Chem, 2012).
One block for each compound: values may come before it. The source made the active and inactive calls. The calls are words filed in the database; no cut-off is given here.

Assays:
Rattus norvegicus [1] = assay: Procognitive activity in Sprague-Dawley rat assessed as increase in acetylcholine level in prefrontal cortex at 1 mg/kg, sc after 3 hrs by brain microdialysis relative to control; format: functional, organism-based; set-up: dose 1 mg/kg
[2] = Apparent permeability from apical to basal side of RRCK cells at 2 uM after 2 hrs by transwell assay; format: ADME, cell-based, Canis lupus familiaris, MDCKII-LE; details: dog, MDCK
[3] = Clearance in iv dosed rat; format: ADME, organism-based; details: in vivo
Canis familiaris [4] = assay: Cardiotoxicity in beagle dog assessed as increase in systolic blood pressure at 10 mg/kg administered as repeated dose for 7 days measured up to 1 month; format: toxicity, organism-based, Canis lupus familiaris, Artery; set-up: dose 10 mg/kg; details: in vivo, 168 h
[5] = Oral bioavailability in rat; format: ADME, organism-based; details: in vivo
Rattus norvegicus [6] = assay: Neurotoxicity in Sprague-Dawley rat assessed as convulsions at 100 mg/kg administered as repeated dose for 7 days measured up to 1 month; format: toxicity, organism-based; set-up: dose 100 mg/kg; details: in vivo, 168 h
Brain = assay: Free AUC (0 to 4 hrs) in sc dosed Sprague-Dawley rat brain by LC-MS/MS analysis; format: ADME, organism-based; details: in vivo
Canis familiaris [7] = assay: Gastrointestinal toxicity in beagle dog assessed as decrease in food intake administered as repeated dose for 7 days measured up to 1 month; format: organism-based, Canis lupus familiaris; details: in vivo, 168 h
Rattus norvegicus [8] = assay: Displacement of [3H]SB207145 from 5HT4 receptor in sc dosed Sprague-Dawley rat striatal membrane incubated for 45 mins prior to [3H]SB207145-adminsitration measured after 15 mins; format: functional, organism-based; details: Striatum
Rattus norvegicus [9] = assay: Gastrointestinal toxicity in male Sprague-Dawley rat assessed as reduction in body weight at 100 mg/kg administered as repeated dose for 7 days measured up to 1 month; format: organism-based; set-up: dose 100 mg/kg; details: in vivo, 168 h
Plasma = assay: Free AUC (0 to 4 hrs) in sc dosed Sprague-Dawley rat plasma by LC-MS/MS analysis; format: ADME, organism-based; details: in vivo
[10] = Intrinsic clearance in human liver microsomes; format: ADME, Microsome; details: read-out: CLH
Rattus norvegicus [11] = assay: Receptor occupancy of 5HT4 receptor in Sprague-Dawley rat brain at 1 mg/kg, sc up to 4 hrs; format: functional; details: route subcutaneous
Canis familiaris [12] = assay: Gastrointestinal toxicity in beagle dog assessed as emesis at 30 mg/kg administered as repeated dose for 7 days measured up to 1 month; format: organism-based, Canis lupus familiaris; set-up: dose 30 mg/kg; details: in vivo, 168 h
Canis familiaris [13] = assay: Neurotoxicity in beagle dog assessed as convulsions at 30 mg/kg administered as repeated dose for 7 days measured up to 1 month; format: toxicity, organism-based, Canis lupus familiaris; set-up: dose 30 mg/kg; details: in vivo, 168 h
Rattus norvegicus [14] = assay: Gastrointestinal toxicity in Sprague-Dawley rat assessed as decrease in food intake administered as repeated dose for 7 days measured up to 1 month; format: organism-based; details: in vivo, 168 h
[15] = Intrinsic clearance in dog liver microsomes; format: ADME, Canis lupus familiaris, Microsome; details: read-out: CLH
[16] = Ratio of free drug concentration in brain to free drug concentration in plasma in sc dosed Sprague-Dawley rat; format: ADME, organism-based; details: read-out: K(p,uu,brain)
Rattus norvegicus [17] = assay: Receptor occupancy of 5HT4 receptor in Wistar rat at […], sc; details: route subcutaneous
CYP2D6 = CYP2D6 (Homo sapiens, UniProt P10635); assay: Inhibition of CYP2D6 in human liver microsomes using dextromethorphan as substrate at 3 uM; format: ADME, Microsome; details: probe dextromethorphan
[18] = Oral bioavailability in dog; format: ADME, organism-based, Canis lupus familiaris; details: in vivo
[19] = AUC (0 to 4 hrs) in sc dosed Sprague-Dawley rat CSF by LC-MS/MS analysis; format: ADME, organism-based; set-up: time < 4 hr, route subcutaneous
[20] = Clearance in iv dosed dog; format: ADME, organism-based, Canis lupus familiaris; details: in vivo
Rattus norvegicus [21] = assay: Procognitive activity in Wistar rat assessed as reversal of scopolamine-induced learning deficit at […], sc administered 30 mins prior to scopolamine-challenge measured on acquisition days 3 and 4 by Morris water maze testing; format: functional, organism-based; set-up: dose 0.032 mg/kg
[22] = Intrinsic clearance in rat liver microsomes; format: ADME, Microsome; details: read-out: CLH
[23] = target: T1, 5-hydroxytryptamine receptor 4 (Homo sapiens, UniProt Q13639); assay: Agonist activity at human 5HT4D receptor expressed in HEK293 cells assessed as cAMP production after 30 mins by HTRF assay relative to 5HT; format: functional, cell-based
[24] = target: T1, 5-hydroxytryptamine receptor 4; assay: biochemical
Description: Displacement of [3H]GR113808 from human 5HT4A receptor expressed in HEK293 cells after 30 mins by liquid scintillation counting

[25] = target: T2, 5-hydroxytryptamine receptor 4 (Rattus norvegicus, UniProt Q62758)
Description: Agonist activity at rat 5HT4L receptor expressed in HEK293 cells assessed as increase in cAMP production after 30 mins by HTRF assay

Canis familiaris [26] = assay: Gastrointestinal toxicity in beagle dog assessed as emesis at 20 mg/kg administered as repeated dose for 7 days measured up to 1 month; format: organism-based, Canis lupus familiaris; set-up: dose 20 mg/kg; details: in vivo, 168 h
Canis familiaris [27] = assay: Cardiotoxicity in beagle dog assessed as increase in systolic blood pressure at 0.05 mg/kg administered as repeated dose for 7 days measured up to 1 month; format: toxicity, organism-based, Canis lupus familiaris, Artery; set-up: dose 0.05 mg/kg; details: in vivo, 168 h
[28] = target: T1, 5-hydroxytryptamine receptor 4
Description: Agonist activity at human 5HT4E receptor expressed in HEK293 cells assessed as increase in cAMP production after 30 mins by HTRF assay

[29] = target: T2, 5-hydroxytryptamine receptor 4; remark: listed apart in the source
Description: Agonist activity at rat 5HT4E receptor expressed in HEK293 cells assessed as increase in cAMP production after 30 mins by HTRF assay

[30] = target: T1, 5-hydroxytryptamine receptor 4; remark: listed apart in the source
Description: Agonist activity at human 5HT4A receptor expressed in HEK293 cells assessed as increase in cAMP production after 30 mins by HTRF assay

[31] = target: T1, 5-hydroxytryptamine receptor 4; assay: biochemical; remark: listed apart in the source
Description: Displacement of [3H]GR113808 from human 5HT4E receptor expressed in CHO cells after 30 mins by liquid scintillation counting

[32] = target: T1, 5-hydroxytryptamine receptor 4; assay: biochemical; remark: listed apart in the source
Description: Displacement of [3H]GR113808 from human 5HT4D receptor expressed in HEK293 cells after 30 mins by liquid scintillation counting

Rattus norvegicus [33] = assay: Procognitive activity in Sprague-Dawley rat assessed as increase in acetylcholine level in prefrontal cortex at 5 mg/kg, sc after 3 hrs by brain microdialysis relative to control; format: functional, organism-based; set-up: dose 5 mg/kg
Rattus norvegicus [34] = assay: Gastrointestinal toxicity in female Sprague-Dawley rat assessed as mucosal injury at 30 mg/kg administered as repeated dose for 7 days measured up to 1 month; format: organism-based; set-up: dose 30 mg/kg; details: in vivo, 168 h
[35] = target: T1, 5-hydroxytryptamine receptor 4; assay: Agonist activity at human 5HT4D receptor expressed in HEK293 cells assessed as cAMP production after 30 mins by HTRF assay; format: functional, cell-based
Rattus norvegicus [36] = assay: Gastrointestinal toxicity in female Sprague-Dawley rat assessed as reduction in body weight at 30 mg/kg administered as repeated dose for 7 days measured up to 1 month; format: organism-based; set-up: dose 30 mg/kg; details: in vivo, 168 h
MDR1 = assay: in vitro; details: dog, MDCK-MDR1
Description: Efflux ratio of permeability from basal to apical to apical to basal side of MDCK cells expressing MDR1 at 2 uM after 5 hrs by transwell assay

[37] = target: T2, 5-hydroxytryptamine receptor 4; remark: listed apart in the source
Description: Displacement of [3H]GR113808 from 5HT4 receptor in rat striatal membrane after 30 mins by liquid scintillation counting

Nucleic Acid [38] = assay: Ratio of drug uptake in CSF to free drug concentration in brain in sc dosed Sprague-Dawley rat; format: ADME, organism-based; details: in vivo
Rattus norvegicus [39] = assay: Gastrointestinal toxicity in male Sprague-Dawley rat assessed as mucosal injury at 100 mg/kg administered as repeated dose for 7 days measured up to 1 month; format: organism-based; set-up: dose 100 mg/kg; details: in vivo, 168 h
[40] = target: T1, 5-hydroxytryptamine receptor 4; remark: listed apart in the source
Description: Agonist activity at human 5HT4B receptor expressed in HEK293 cells assessed as increase in cAMP production after 30 mins by HTRF assay

[41] = target: T2, 5-hydroxytryptamine receptor 4; remark: listed apart in the source
Description: Agonist activity at rat 5HT4S receptor expressed in HEK293 cells assessed as increase in cAMP production after 30 mins by HTRF assay

Rattus norvegicus [42] = assay: Receptor occupancy of 5HT4 receptor in Sprague-Dawley rat brain at 5 mg/kg, sc up to 4 hrs; format: functional; details: route subcutaneous
[43] = target: T1, 5-hydroxytryptamine receptor 4; assay: biochemical; remark: listed apart in the source
Description: Displacement of [3H]GR113808 from human 5HT4B receptor expressed in HEK293 cells after 30 mins by liquid scintillation counting

Nucleic Acid [44] = assay: Ratio of drug uptake in CSF to free drug concentration in plasma in sc dosed Sprague-Dawley rat; format: ADME, organism-based; details: in vivo
[45] = target: 5-hydroxytryptamine receptor 4 (Rattus norvegicus) (UniProt Q62758); assay: Agonist activity at 5HT4 receptor in rat oesophagus assessed as reversal of carbamylcholine-induced contraction at 10 uM incubated at 7 mins post carbamylcholine-challenge measured after 30 mins relative to 5HT; format: functional
5-hydroxytryptamine receptor 4 (Rattus norvegicus), sequence (Q62758 whole entry): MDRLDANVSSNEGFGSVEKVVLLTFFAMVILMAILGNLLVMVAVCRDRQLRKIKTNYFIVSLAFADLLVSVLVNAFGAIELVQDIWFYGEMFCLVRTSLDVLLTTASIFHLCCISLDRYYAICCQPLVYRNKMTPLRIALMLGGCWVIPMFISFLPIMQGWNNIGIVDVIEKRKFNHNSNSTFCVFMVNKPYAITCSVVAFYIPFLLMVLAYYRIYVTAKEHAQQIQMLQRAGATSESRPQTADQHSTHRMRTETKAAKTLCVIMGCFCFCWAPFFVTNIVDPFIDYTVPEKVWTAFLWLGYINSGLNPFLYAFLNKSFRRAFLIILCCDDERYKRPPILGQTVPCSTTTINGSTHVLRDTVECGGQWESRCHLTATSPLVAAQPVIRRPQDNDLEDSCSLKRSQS

T1 sequence (Q13639 whole entry): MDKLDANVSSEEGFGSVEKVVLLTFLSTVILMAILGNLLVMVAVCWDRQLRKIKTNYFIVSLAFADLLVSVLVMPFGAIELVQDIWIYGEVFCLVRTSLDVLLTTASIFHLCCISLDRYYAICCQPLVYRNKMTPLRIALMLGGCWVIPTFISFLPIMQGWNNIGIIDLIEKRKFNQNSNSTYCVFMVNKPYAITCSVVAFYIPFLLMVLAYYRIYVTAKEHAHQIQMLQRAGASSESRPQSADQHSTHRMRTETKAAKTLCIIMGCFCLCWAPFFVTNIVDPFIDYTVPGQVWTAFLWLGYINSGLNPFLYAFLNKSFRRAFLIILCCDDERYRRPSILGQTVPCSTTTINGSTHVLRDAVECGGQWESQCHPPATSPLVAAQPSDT
CYP2D6, sequence (P10635 whole entry): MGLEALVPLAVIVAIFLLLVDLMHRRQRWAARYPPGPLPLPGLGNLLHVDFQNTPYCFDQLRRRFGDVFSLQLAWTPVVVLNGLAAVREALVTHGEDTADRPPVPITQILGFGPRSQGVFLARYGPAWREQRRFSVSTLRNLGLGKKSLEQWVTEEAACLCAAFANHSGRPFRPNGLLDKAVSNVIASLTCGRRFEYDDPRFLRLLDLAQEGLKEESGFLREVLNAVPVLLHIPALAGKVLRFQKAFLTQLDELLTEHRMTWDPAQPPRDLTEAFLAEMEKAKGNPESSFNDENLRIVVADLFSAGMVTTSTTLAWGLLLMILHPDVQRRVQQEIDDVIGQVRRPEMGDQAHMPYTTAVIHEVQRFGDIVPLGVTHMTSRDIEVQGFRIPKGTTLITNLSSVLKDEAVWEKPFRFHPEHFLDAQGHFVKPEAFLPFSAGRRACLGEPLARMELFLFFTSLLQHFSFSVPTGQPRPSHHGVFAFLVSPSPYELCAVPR
T2 sequence (Q62758 whole entry): as the sequence (Q62758 whole entry) above

- Papp A→B at 2 h, 2 µM [2]: 30 ×10⁻⁶ cm/s
- clearance [3]: 81.8 mL/min/kg
- bioavailability [5]: 40%
- fAUC (Brain): 0.706 µM·h
- Activity (Rattus norvegicus [8]): Dose-dependent effect
- fAUC (Plasma): 1.054 µM·h
- CLint scaled [10]: 33 mL/min/kg
- CLint scaled [15]: 27.9 mL/min/kg
- Kp uu [16]: 0.7
- inhibition at 3 µM (CYP2D6): 13%
- bioavailability [18]: 47%
- AUC(0-t) at 4 h [19]: 0.519 µM·h
- clearance [20]: 21.2 mL/min/kg
- CLint scaled [22]: 48.9 mL/min/kg
SMILES: OC1(CN2CCC(COc3noc4cccc(O[C@@H]5CCOC5)c34)CC2)CCOCC1 [PF-04995274]
- Activity (Rattus norvegicus [1]): Active
- Activity (Canis familiaris [4]): Toxic
- Activity (Rattus norvegicus [6]): Toxic
- Activity (Canis familiaris [7]): Toxic
- Activity (Rattus norvegicus [9]): Toxic
- Occ (Rattus norvegicus [11]): >90%
- Activity (Canis familiaris [12]): Toxic
- Activity (Canis familiaris [13]): Toxic
- Activity (Rattus norvegicus [14]): Toxic
- Occ (Rattus norvegicus [17]): >90%
- Activity (Rattus norvegicus [21]): Active

- Emax [23]: 35%
- Papp A→B at 2 h, 2 µM [2]: > 27 ×10⁻⁶ cm/s
- Ki [24]: 4.6 nM
- EC50 [25]: 1.52 nM
- clearance [3]: 104 mL/min/kg
- bioavailability [5]: 100%
- fAUC (Brain): 2.922 µM·h
- Activity (Rattus norvegicus [8]): Dose-dependent effect
- EC50 [28]: 1.2 nM
- EC50 [29]: 2.15 nM
- fAUC (Plasma): 1.669 µM·h
- CLint scaled [10]: 25.4 mL/min/kg
- EC50 [30]: 0.8 nM
- Ki [31]: 6.3 nM
- Ki [32]: 2.7 nM
- CLint scaled [15]: 35.4 mL/min/kg
- Kp uu [16]: 1.8
- EC50 [35]: 0.9 nM
- efflux ratio at 5 h, 2 µM (MDR1): 1.37
- Ki [37]: 3.9 nM
- bioavailability [18]: 51%
- Ratio (Nucleic Acid [38]): 2.1
- AUC(0-t) at 4 h [19]: 1.38 µM·h
- EC50 [40]: 1.3 nM
- EC50 [41]: 1.15 nM
- clearance [20]: 12.4 mL/min/kg
- CLint scaled [22]: 42.7 mL/min/kg
- Ki [43]: 6.8 nM
- Ratio (Nucleic Acid [44]): 0.8
SMILES: CC1(C)C(=O)N(C(=O)NCC2CCN(CC3(O)CCOCC3)CC2)c2cc(F)ccc21 [PF-03382792]
- Activity (Canis familiaris [26]): Toxic
- Activity (Canis familiaris [27]): Toxic
- Activity (Canis familiaris [7]): Toxic
- Activity (Rattus norvegicus [9]): Toxic
- Activity (Canis familiaris [13]): Toxic
- Activity (Rattus norvegicus [14]): Toxic
- Activity (Rattus norvegicus [33]): Active
- Activity (Rattus norvegicus [34]): Toxic
- Activity (Rattus norvegicus [36]): Toxic
- Activity (Rattus norvegicus [39]): Toxic
- Occ (Rattus norvegicus [42]): >90%

- Emax [23]: 81%
- Papp A→B at 2 h, 2 µM [2]: 2.4 ×10⁻⁶ cm/s
- CLint scaled [10]: 77 mL/min/kg
- Ki [32]: 0.74 nM
- EC50 [35]: 1.2 nM
- inhibition at 3 µM (CYP2D6): 79%
SMILES: CCCCN1CCC(COc2noc3cccc(OC4CCCC4)c23)CC1

- Activity [45]: Active
SMILES: COCCCN1CCC(NC(=O)c2cc(Cl)c(N)c3c2OCC3)CC1

- inhibition at 3 µM (CYP2D6): 93%
SMILES: CCCCN1CCC(COc2noc3cccc(OCC4CCC4)c23)CC1
